Read-outs that look alike come from different tables or passages of the source. *1 amine or outer side, *2 acyl side, *3 side chain or, on linkers, in order; H or OH if unused. Where a SMILES comes first, the peptide text is derived from it. Bridges are numbered along the chain shown (N, C = ends). [ ]: non-standard residue; d: D form. The star is where a group is joined. ξ: configuration not given here. Phe(3,4,5-F3) = N[C@@H](Cc1cc(F)c(F)c(F)c1)C(=O)O; Pro(trans-4-F) = O=C(O)[C@@H]1C[C@@H](F)CN1; NMePhe(4-F) = CN[C@@H](Cc1ccc(F)cc1)C(=O)O; Phe(4-F) = N[C@@H](Cc1ccc(F)cc1)C(=O)O; d(cisHyp) = O=C(O)[C@H]1C[C@@H](O)CN1; Bta = N[C@@H](Cc1csc2ccccc12)C(=O)O; NMeY = CN[C@@H](Cc1ccc(O)cc1)C(=O)O; Hyp = O=C(O)[C@@H]1C[C@@H](O)CN1; NMeF = CN[C@@H](Cc1ccccc1)C(=O)O; X1 = O=C([C@H]1COCCN1[*:1])[*:2]; dHyp = O=C(O)[C@H]1C[C@H](O)CN1; NMeL = CN[C@@H](CC(C)C)C(=O)O; NMehSer = CN[C@@H](CCO)C(=O)O; NMeNle = CCCC[C@H](NC)C(=O)O; dPip = O=C(O)[C@H]1CCCCN1; NMeA = CN[C@@H](C)C(=O)O; Orn = NCCC[C@H](N)C(=O)O; Dab = NCC[C@H](N)C(=O)O; Dap = NC[C@H](N)C(=O)O; Propionyl = CCC(=O)*; ξC = NC(CS)C(=O)O
Target: T1, Human PD-L1/PD-1 (Homo sapiens, UniProt Q9NZQ7)
T1 construct: TVMV protease cleavage site (C); made in house; host or cells: HEK293T cells
Test: HTRF Human PD-L1/PD-1 binding assay (PD-1-Ig/PD-L1-His)
Details: PD-L1-His 10 nM, PD-1-Ig 20 nM
Method in brief: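 Truncated Fc-fused human PD-1 (aa 25-167) at 20 nM and His-tagged PD-L1 (aa 18-239) at 10 nM final are used, with peptides preincubated 15 min with PD-L1. Detection uses europium-cryptate anti-Ig and APC anti-His antibodies; 665/620 nm ratio.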

[1] = class symbol, read-out: HTRF Human PD-L1/PD-1 Binding Assay IC50 Range
[2] = read-out: HTRF Human PD-L1/PD-1 Binding Assay IC50

T1 sequence (Q9NZQ7 with tags, fused parts or gaps): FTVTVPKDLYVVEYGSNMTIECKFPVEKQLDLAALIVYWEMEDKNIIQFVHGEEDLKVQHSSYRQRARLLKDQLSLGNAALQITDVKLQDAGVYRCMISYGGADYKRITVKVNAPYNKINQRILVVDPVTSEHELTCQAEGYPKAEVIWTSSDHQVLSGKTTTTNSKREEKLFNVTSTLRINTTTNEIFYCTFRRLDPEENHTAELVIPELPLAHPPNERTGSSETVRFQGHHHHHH

| Structure (SMILES) | IC50 [1] [nM] | IC50 [2] [nM] |
| --- | --- | --- |
| CCCC[C@H]1C(=O)N2CCC[C@@H]2C(=O)N[C@@H](CC(=O)O)C(=O)N[C@@H](C(C)C)C(=O)N(C)[C@@H](Cc2ccccc2)C(=O)N[C@@H](CC(=O)O)C(=O)N2CCCC[C@@H]2C(=O)N[C@@H](Cc2c[nH]c3ccccc23)C(=O)N[C@@H](Cc2ccc(O)cc2)C(=O)N[C@@H](CCN)C(=O)N[C@H](C(=O)NCC(N)=O)CSCC(=O)N[C@@H](Cc2cc(F)c(F)c(F)c2)C(=O)N(C)[C@@H](Cc2ccc(F)cc2)C(=O)N1C [Example 10571] ({CH2CO}-[Phe(3,4,5-F3)][NMePhe(4-F)][NMeNle][dP]DV[NMeF]D[dPip]WY[Dab]CG-NH2; thioether N-13) | 1 to 9.9 | – |
| CC(C)C[C@@H]1NC(=O)[C@H](Cc2ccc(O)cc2)NC(=O)[C@H](Cc2c[nH]c3ccccc23)NC(=O)[C@H]2CCCCN2C(=O)[C@H](Cc2ccc(O)cc2)NC(=O)[C@H](Cc2ccccc2)N(C)C(=O)[C@H](C(C)C)NC(=O)[C@H](CC(=O)O)NC(=O)[C@H]2CCCN2C(=O)[C@H](C)N(C)C(=O)[C@H](Cc2ccc(F)cc2)N(C)C(=O)[C@H](Cc2ccccc2)NC(=O)CSC[C@@H](C(=O)NCC(N)=O)NC1=O [Example 10543] ({CH2CO}-F[NMePhe(4-F)][NMeA][dP]DV[NMeF]Y[dPip]WYLCG-NH2; thioether N-13) | – | 10 |
| CCCC[C@H]1C(=O)N(C)[C@@H](CCCC)C(=O)N[C@@H](CCCN)C(=O)N[C@H](C(=O)NCC(N)=O)CSCC(=O)N[C@@H](Cc2ccc(OC)cc2)C(=O)N(C)[C@@H](C)C(=O)N[C@@H](CC(=O)O)C(=O)N2CCC[C@H]2C(=O)N[C@@H](CN)C(=O)N[C@@H](CCC(=O)O)C(=O)N2C[C@H](O)C[C@H]2C(=O)N[C@@H](Cc2c[nH]c3ccccc23)C(=O)N[C@@H](CC(=O)O)C(=O)N[C@@H](Cc2c[nH]c3ccccc23)C(=O)N1C [Example 7101] ({CH2CO}-Y(Me)[NMeA]DP[Dap]E[Hyp]WDW[NMeNle][NMeNle][Orn]CG-NH2; thioether N-14) | 1 to 9.9 | – |
| CCCC[C@H]1C(=O)N(C)[C@@H](CCCC)C(=O)N(C)[C@@H](CC(C)C)C(=O)N[C@H](C(=O)NCC(N)=O)CSCC(=O)N[C@@H](Cc2ccc(O)cc2)C(=O)N(C)[C@@H](C)C(=O)N[C@@H](CC(N)=O)C(=O)N2CCC[C@H]2C(=O)N[C@@H](Cc2c[nH]cn2)C(=O)N[C@@H](CCC(=O)O)C(=O)N2C[C@H](O)C[C@H]2C(=O)N[C@@H](Cc2c[nH]c3ccccc23)C(=O)N[C@@H](CCN)C(=O)N[C@@H](Cc2csc3ccccc23)C(=O)N1C [Example 5264] ({CH2CO}-Y[NMeA]NPHE[Hyp]W[Dab][Bta][NMeNle][NMeNle][NMeL]CG-NH2; thioether N-14) | 1000 to 10000 | – |
| CCCC[C@H]1C(=O)N2CCC[C@@H]2C(=O)N[C@@H](CC(=O)O)C(=O)N[C@@H](C(C)C)C(=O)N(C)[C@@H](CCOC)C(=O)N[C@@H](Cc2ccc(O)cc2)C(=O)N2CCC[C@@H]2C(=O)N[C@@H](Cc2c[nH]c3ccccc23)C(=O)N[C@@H](Cc2ccc(O)cc2)C(=O)N[C@@H](CCCN)C(=O)N[C@H](C(=O)NCC(N)=O)CSCC(=O)N[C@@H](Cc2ccc(F)cc2)C(=O)N(C)[C@@H](Cc2ccccc2)C(=O)N1C [Example 9221] ({CH2CO}-[Phe(4-F)][NMeF][NMeNle][dP]DV[NMehSer](Me)Y[dP]WY[Orn]CG-NH2; thioether N-13) | 100 to 990 | – |
| CCCC[C@H]1C(=O)N2CCC[C@@H]2C(=O)N[C@@H](CC(=O)O)C(=O)N[C@@H](C(C)C)C(=O)N(C)[C@@H](Cc2ccccc2)C(=O)N[C@@H](CCC(=O)O)C(=O)N2CCCC[C@@H]2C(=O)N[C@@H](Cc2c[nH]c3ccccc23)C(=O)N[C@@H](Cc2ccc(O)cc2)C(=O)N[C@@H](CC(C)C)C(=O)N[C@H](C(=O)NCC(N)=O)CSCC(=O)N[C@@H](Cc2cc(F)c(F)c(F)c2)C(=O)N(C)[C@@H](Cc2ccc(OC)cc2)C(=O)N1C [Example 10602] ({CH2CO}-[Phe(3,4,5-F3)][NMeY](Me)[NMeNle][dP]DV[NMeF]E[dPip]WYLCG-NH2; thioether N-13) | 1 to 9.9 | – |
| CCCC[C@H]1C(=O)N(C)[C@@H](CCCC)C(=O)N[C@@H](CCCNC(=N)N)C(=O)NC(C(=O)NCC(N)=O)CSCC(=O)N[C@@H](Cc2ccc(O)cc2)C(=O)N(C)[C@@H](C)C(=O)N[C@@H](CC(N)=O)C(=O)N2CCC[C@H]2C(=O)N[C@@H](Cc2cnc[nH]2)C(=O)N[C@@H](CC(C)C)C(=O)N2CCC[C@H]2C(=O)N[C@@H](Cc2c[nH]c3ccccc23)C(=O)N[C@@H](CO)C(=O)N[C@@H](Cc2csc3ccccc23)C(=O)N1C (stereo partly drawn) [Example 10045] ({CH2CO}-Y[NMeA]NPHLPWS[Bta][NMeNle][NMeNle]R[ξC]G-NH2; thioether N-14) | 10 to 99.9 | – |
| CCCC[C@H]1C(=O)N[C@@H](CCC(=O)O)C(=O)N[C@H](C(=O)NCC(N)=O)CSCC(=O)N[C@@H](Cc2ccc(O)cc2)C(=O)N(C)[C@@H](C)C(=O)N[C@@H](CC(=O)O)C(=O)N2CCC[C@H]2C(=O)N[C@@H](Cc2c[nH]cn2)C(=O)N[C@@H](CCC(N)=O)C(=O)N2C[C@H](O)C[C@H]2C(=O)N[C@@H](Cc2c[nH]c3ccccc23)C(=O)N[C@@H](CO)C(=O)N[C@@H](Cc2c[nH]c3ccccc23)C(=O)N(C)[C@@H](CCOC)C(=O)N1C [Example 10136] ({CH2CO}-Y[NMeA]DPHQ[Hyp]WSW[NMehSer](Me)[NMeNle]ECG-NH2; thioether N-14) | 1 to 9.9 | – |
| CCCC[C@H]1C(=O)N2C[C@H](O)C[C@@H]2C(=O)N[C@@H](CC(=O)O)C(=O)N[C@@H](C(C)C)C(=O)N(C)[C@@H](Cc2ccccc2)C(=O)N[C@@H](CC(=O)O)C(=O)N2C[C@H](O)C[C@@H]2C(=O)N[C@@H](Cc2c[nH]c3ccccc23)C(=O)N[C@@H](Cc2ccc(O)cc2)C(=O)N[C@@H](CCN)C(=O)N[C@H](C(=O)NCC(N)=O)CSCC(=O)N[C@@H](Cc2cc(F)c(F)c(F)c2)C(=O)N(C)[C@@H](Cc2ccccc2)C(=O)N1C [Example 9347] ({CH2CO}-[Phe(3,4,5-F3)][NMeF][NMeNle][d(cisHyp)]DV[NMeF]D[d(cisHyp)]WY[Dab]CG-NH2; thioether N-13) | – | 10.9 |
| CCCC[C@H]1C(=O)N(C)[C@@H](CCCC)C(=O)N[C@@H](CCC(=O)O)C(=O)N[C@H](C(=O)NCC(N)=O)CSCC(=O)N[C@@H](Cc2ccc(O)cc2)C(=O)N(C)[C@@H](C)C(=O)N[C@@H](CC(N)=O)C(=O)N2CCC[C@H]2C(=O)N[C@@H](CN)C(=O)N[C@@H](CCC(N)=O)C(=O)N2C[C@H](O)C[C@H]2C(=O)N[C@@H](Cc2c[nH]c3ccccc23)C(=O)N[C@@H](CCN)C(=O)N[C@@H](Cc2c[nH]c3ccccc23)C(=O)N1C [Example 5237] ({CH2CO}-Y[NMeA]NP[Dap]Q[Hyp]W[Dab]W[NMeNle][NMeNle]ECG-NH2; thioether N-14) | 1 to 9.9 | – |
| CCCC[C@H]1C(=O)N(C)[C@@H](CCCC)C(=O)N[C@@H](CCCNC(=O)CC)C(=O)N[C@H](C(=O)NCC(N)=O)CSCC(=O)N[C@@H](Cc2ccc(OC)cc2)C(=O)N(C)[C@@H](C)C(=O)N[C@@H](CC(N)=O)C(=O)N2CCC[C@H]2C(=O)N[C@@H](CC(N)=O)C(=O)N[C@@H](CC(C)C)C(=O)N2C[C@H](F)C[C@H]2C(=O)N[C@@H](Cc2c[nH]c3ccccc23)C(=O)N[C@@H](C)C(=O)N[C@@H](Cc2c[nH]c3ccccc23)C(=O)N1C [Example 7083] ({CH2CO}-Y(Me)[NMeA]NPNL[Pro(trans-4-F)]WAW[NMeNle][NMeNle][Orn](Propionyl)CG-NH2; thioether N-14) | 10 to 99.9 | – |
| CCCC[C@H]1C(=O)N2C[C@@H](O)C[C@@H]2C(=O)N[C@@H](CC(=O)O)C(=O)N[C@@H](C)C(=O)N(C)[C@@H](Cc2ccccc2)C(=O)N[C@@H](Cc2ccc(O)cc2)C(=O)N2C[C@@H](O)C[C@@H]2C(=O)N[C@@H](Cc2c[nH]c3ccccc23)C(=O)N[C@@H](Cc2ccc(O)cc2)C(=O)N[C@@H](CC(C)C)C(=O)N[C@H](C(=O)NCC(N)=O)CSCC(=O)N[C@@H](Cc2ccccc2)C(=O)N(C)[C@@H](Cc2ccccc2)C(=O)N1C [Example 10079] ({CH2CO}-F[NMeF][NMeNle][dHyp]DA[NMeF]Y[dHyp]WYLCG-NH2; thioether N-13) | 10 to 99.9 | – |
| CCCC[C@H]1C(=O)N2CCC[C@@H]2C(=O)N[C@@H](CC(=O)O)C(=O)N[C@@H](C(C)C)C(=O)N(C)[C@@H](Cc2ccccc2)C(=O)N[C@@H](CCC(=O)O)C(=O)N2CCCC[C@@H]2C(=O)N[C@@H](Cc2c[nH]c3ccccc23)C(=O)N[C@@H](Cc2ccc(O)cc2)C(=O)N[C@@H](CCC(N)=O)C(=O)N[C@H](C(=O)NCC(N)=O)CSCC(=O)N[C@@H](Cc2cc(F)c(F)c(F)c2)C(=O)N(C)[C@@H](Cc2ccc(F)cc2)C(=O)N1C [Example 10563] ({CH2CO}-[Phe(3,4,5-F3)][NMePhe(4-F)][NMeNle][dP]DV[NMeF]E[dPip]WYQCG-NH2; thioether N-13) | 1 to 9.9 | – |
| CCCC[C@H]1C(=O)N2CCC[C@@H]2C(=O)N[C@@H](CC(=O)O)C(=O)N[C@@H](C(C)C)C(=O)N(C)[C@@H](Cc2ccccc2)C(=O)N[C@@H](CCC(=O)O)C(=O)N2CCOC[C@@H]2C(=O)N[C@@H](Cc2c[nH]c3ccccc23)C(=O)N[C@@H](Cc2ccc(O)cc2)C(=O)N[C@@H](CCC(N)=O)C(=O)N[C@H](C(=O)NCC(N)=O)CSCC(=O)N[C@@H](Cc2cc(F)c(F)c(F)c2)C(=O)N(C)[C@@H](Cc2ccc(F)cc2)C(=O)N1C [Example 10607] ({CH2CO}-[Phe(3,4,5-F3)][NMePhe(4-F)][NMeNle][dP]DV[NMeF]E[X1]WYQCG-NH2; thioether N-13) | 1 to 9.9 | – |
| CCCC[C@H]1C(=O)N(C)[C@@H](CCCC)C(=O)N[C@@H](CCCNC(=N)N)C(=O)NC(C(=O)NCC(N)=O)CSCC(=O)N[C@@H](Cc2ccc(O)cc2)C(=O)N(C)[C@@H](C)C(=O)N[C@@H](CC(N)=O)C(=O)N2CCC[C@H]2C(=O)N[C@@H](CO)C(=O)N[C@@H](CO)C(=O)N2CCC[C@H]2C(=O)N[C@@H](Cc2c[nH]c3ccccc23)C(=O)N[C@@H](CO)C(=O)N[C@@H](Cc2csc3ccccc23)C(=O)N1C (stereo partly drawn) [Example 10015] ({CH2CO}-Y[NMeA]NPSSPWS[Bta][NMeNle][NMeNle]R[ξC]G-NH2; thioether N-14) | 1 to 9.9 | – |
